Legend:
[1] = test system: fibroblastes humains MRC5; assay: Total protein synthesis by fibroblasts in culture (Coomassie blue, OD 595 nm); format: cell-based; settings: 100 µl per well, MRC5, 28th passage, medium sampled after 48, 72, 96 and 120 h (time not given); for activation at 50 µg/mL: Homo sapiens, read-out: augmentation de la synthèse protéique par rapport au témoin; for augmentation de la synthèse protéique par rapport au témoin: 50 µg/ml
From the text: Dans ce test, qui est un test relatif à une inhibition enzymatique vraie, puisque le substrat est artificiel et de structure assez éloignée des substrats naturels de l'enzyme, on constate que les molécules les plus actives en tant qu'inhibiteurs, sont celles dépourvues de radical phytile; la présence du magnésium n'apparaît pas comme essentielle, pour cette fonction particulière, d'où l'intérêt de compositions comprenant plusieurs des substances actives définies ci-dessus. * Effet des substances décrites sur la synthèse des protéines totales par des fibroblastes en culture (restructuration) : - Mise en évidence : Une étude de cytotoxicité est réalisée au préalable pour déterminer les concentrations maximales de test des différentes substances concernées. Cellules utilisées : fibroblastes humains MRC5, au 28ème passage. Les cellules sont ensemencées sur une plaque à 96 puits à raison de 2.10^5 cellules par puits environ et mises en culture dans du milieu minimum de Eagle (MEM) additionné de 1 % de glutamine 200 mM, 1 % de solution de vitamines, 100 U/ml de pénicilline, 100 U/ml de streptomycine et 2 % de sérum de veau foetal. La solution à tester est ajoutée à raison de 100 µl par puits, à la concentration de 50 µg/ml. Les cellules sont incubées à 37°C sous 5 % d'atmosphères de CO2. On prélève le milieu de culture après 48, 72, 96 et 120 heures de culture. Les protéines totales synthétisées sont déterminées après coloration des surnageants par le bleu de Coomassie et mesure de la D.O. à 595 nm. L'augmentation de la synthèse protéique est mesurée par rapport au témoin (solvant de la substance à tester). - Résultats : […]

[2] = Antiradical effect, chemical method (DPPH, OD 519 nm); settings: 0,15 ml of 2 % solution in methanol; 25°C, 5 min; pH 7; toluene extraction
Procedure: Dans ce test, on constate une relative homogénéité des actions des différentes substances, contrairement aux tests précédents; ici, c'est donc la structure commune qui doit jouer le rôle principal dans cette action. - Mise en évidence par la méthode chimique : Réactif : 1,1-diphényl-2-picrylhydrazyle : 2,5 mg dans 100 ml de méthanol. Solvant des substances antiradicalaires : méthanol. Solution antiradicalaire : 2 % dans du méthanol. Ce produit est un radical libre stable pouvant être dégradé par des substances antiradicalaires. On réalise un blanc pour le témoin et un blanc pour l'essai : Blanc témoin : tampon phosphate pH 7 : 1,5 ml méthanol : 3 ml Témoin : solution réactif : 3 ml tampon phosphate pH 7 : 1,5 ml Blanc essai : tampon phosphate pH 7 : 1,35 ml méthanol : 3,15 ml Essai : solution réactif : 3 ml tampon phosphate pH 7 : 1,35 ml solution d'antiradicalaire : 0,15 ml. On agite à 25°C pendant 5 min. Puis on extrait par 4 ml de toluène pendant 30 secondes. On filtre sur un papier séparateur de phases et on lit la D.O. de la solution de toluène à 519 nm contre la solution de toluène obtenue pour le blanc correspondant. On calcule le pourcentage de réactif disparu. - Résultats : […]

collagénase pancréatique = assay: Collagenase inhibition (agarose gel diffusion, enzyme and substance together in the well); format: biochemical; settings: 15 h at 37°C
Procedure: (§1) On évalue l'action enzymatique en mesurant le diamètre des zones d'hydrolyse du collagène fibreux. Le groupe chlorophylle-chlorophyllide est le plus actif, ce qui suggère que la présence de magnésium dans la structure a une grande importance. * Effet d'inhibition de la collagénase : - Mise en évidence : On répartit dans quatre boîtes de Pétri de 8 cm de diamètre 20 ml d'une solution à 1 % d'agarose dans du tampon Tris pH 8,8, contenant en suspension 20 mg de collagène fibreux insoluble. Cette répartition se fait à 45°C. Après solidification de l'agarose, on perfore 5 puits de 3 mm de diamètre dans le gel grâce à un emporte-pièce. Dans ces 5 puits, on place 25 µl d'une solution de collagénase pancréatique dans du tampon Tris pH 8,8 à des concentrations de : 10 mg/ml (3800 U/ml) et 25 µl d'une solution de la substance à tester dans le même tampon à une concentration de 4 %, 3 %, 2 %, 1 % et 0 %. Comme la plupart des produits à doser ne sont pas solubles dans le tampon, on part d'une solution mère dans du diméthylsulfoxyde. Les boîtes de Pétri sont incubées 15 heures à 37°C, puis le gel est coloré par une solution à 0,25 % d'acide picrique à 0,25 % pendant 3 min, puis une solution de Rouge Sirius à 0,1 % pendant 5 min. L'excès de coloration est éliminé par lavage à l'eau. - Résultats : […]

[3] = test system: collagène fibreux insoluble; assay: Increase of the resistance of collagen to collagenase (agarose gel, diameter of hydrolysis zones); format: biochemical; settings: product in the gel at 0,025 %; collagénase pancréatique 10 mg/ml (3800 U/ml), 15 h at 37°C, Tris pH 8,8
Procedure: * Accroissement de la résistance du collagène aux effets de la collagénase : - Mise en évidence : On répartit dans quatre boîtes de Pétri de 8 cm de diamètre 20 ml d'une solution à 1 % d'agarose dans du tampon Tris pH 8,8, contenant en suspension 20 mg de collagène fibreux insoluble et 0, 0,1, 0,3 et 0,5 ml d'une solution à 5 % de produit à tester selon les boîtes, soient des concentrations de 0, 0,025 %, 0,075 %, 0,125 %. Comme la plupart des produits à tester ne sont pas solubles dans le tampon, on part d'une solution mère dans du diméthylsulfoxyde (DMSO). Cette répartition se fait à 45°C. Après solidification de l'agarose, on perfore 5 puits de 3 mm de diamètre dans le gel grâce à un emporte-pièce. Dans ces 5 puits, on place 50 µl d'une solution de collagénase pancréatique dans du tampon Tris pH 8,8 à une concentration de 10 mg/ml (3800 U/ml). Les boîtes de Pétri sont incubées 15 heures à 37°C, puis le gel est coloré par une solution à 0,25 % d'acide picrique à 0,25 % pendant 3 min, puis une solution de Rouge Sirius à 0,1 % pendant 5 min. L'excès de coloration est éliminé par lavage à l'eau. - Résultats :
as §1

élastase pancréatique = élastase pancréatique (Sus scrofa, UniProt P00772); assay: Pancreatic elastase inhibition on synthetic substrate N succinyl N ala-ala-ala-p nitroanilide; format: biochemical; settings: 0,5 ml of 0,1 % test solution in DMSO à 50 %, 3 ml total; pH 7,6; OD 410 nm over 3 min
Chain of élastase pancréatique (P00772 27-266): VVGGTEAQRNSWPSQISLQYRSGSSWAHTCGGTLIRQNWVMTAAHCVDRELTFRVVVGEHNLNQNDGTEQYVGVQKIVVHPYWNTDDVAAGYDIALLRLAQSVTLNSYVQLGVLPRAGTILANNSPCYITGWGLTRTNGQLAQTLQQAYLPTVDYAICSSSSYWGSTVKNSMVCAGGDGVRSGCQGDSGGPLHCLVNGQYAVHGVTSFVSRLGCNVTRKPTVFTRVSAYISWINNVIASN
From the text: Dans ce test, les substances les plus performantes sont les mêmes que dans le test précédent (chlorophylle-chlorophyllide); de plus, ces substances présentent un effet de renforcement de la résistance du collagène contre les effets de la collagénase, alors que l'enzyme elle-même est peu atteinte par ces substances. * Inhibition de l'élastase pancréatique : - Mise en évidence : L'activité de l'élastase pancréatique est déterminée sur un substrat synthétique. On constate que les produits décrits ci-dessus ont un effet sur cette enzyme alors que le substrat est un dérivé de peptide de faible poids moléculaire : le N succinyl N ala-ala-ala-p nitroanilide. Solution substrat : solution du substrat ci-dessus à 1 % dans du tampon phosphate pH 7,6. Solution enzymatique : élastase pancréatique à (1000 U/ml) dans le tampon pH 7,6. Solvant DMSO à 50 % dans de l'eau distillée. Solution à tester : substance à tester en solution dans le solvant à 0,1 %. Dans un premier tube à essai (blanc), on place : • 2,2 ml de tampon pH 7,6 • 0,3 ml de solution enzymatique • 0,5 ml de solvant. Dans un deuxième tube à essai (essai), on place : • 1 ml de solution substrat • 1,2 ml de tampon pH 7,6 • 0,3 ml de solution enzymatique • 0,5 ml de solution à tester. Dans un troisième tube à essai, on place : • 1 ml de solution substrat • 1,2 ml de tampon pH 7,6 • 0,3 ml de solution enzymatique • 0,5 ml de solvant. On mesure la D.O. de la solution essai contre la solution blanc à 410 nm. On note la valeur toutes les 30 secondes pendant 3 minutes. On réalise la même mesure pour la solution témoin. L'activité de l'enzyme est définie par la vitesse d'augmentation de D.O. du témoin. L'activité de la solution inhibitrice à tester se définit comme une diminution relative de l'activité de l'enzyme. - Résultats : […]

[4] = 25 µl substance solution at 1 % with 25 µl collagénase 10 mg/ml in the well
[5] = 25 µl substance solution at 2 % with 25 µl collagénase 10 mg/ml in the well
[6] = 25 µl substance solution at 3 % with 25 µl collagénase 10 mg/ml in the well
[7] = 25 µl substance solution at 4 % with 25 µl collagénase 10 mg/ml in the well

Compound	activation at 50 µg/mL [1] [%]	pourcentage de réactif disparu (méthode chimique) [2] [%]	Effet d'inhibition de la collagénase (collagénase pancréatique; [4]) [%]	Effet d'inhibition de la collagénase (collagénase pancréatique; [5]) [%]	Effet d'inhibition de la collagénase (collagénase pancréatique; [6]) [%]	Effet d'inhibition de la collagénase (collagénase pancréatique; [7]) [%]	Accroissement de la résistance du collagène aux effets de la collagénase [3] [%]	Inhibition de l'élastase pancréatique (diminution relative de l'activité de l'enzyme) (élastase pancréatique) [%]	augmentation de la synthèse protéique par rapport au témoin [1] [%]
C=CC1=C(C)c2cc3[nH]c(c(CCC(=O)O)c3C)c3c4nc(cc5[nH]c(cc1n2)c(C)c5CC)C(C)=C4C(=O)C3C(=O)OC (centres unmarked) [Phaéophorbide a, didéhydrophaéophorbide a]	1	33	2	2	2	6	2	17	–
C=CC1=C(C)c2cc3[nH]c(c(CCC(=O)OCC=C(C)CCCC(C)CCCC(C)CCCC(C)C)c3C)c3c4nc(cc5[nH]c(cc1n2)c(C)c5CC)C(C)=C4C(=O)C3C(=O)OC (centres unmarked) [Phaéophytine a, didéhydrophaéophytine a]	4	20	0	0	0	2	0	9	–
didéhydrochlorophylle a	–	84	2	3	3	4	5	12	15
didéhydrochlorophyllide a	–	83	3	6	8	9	3	28	23

Source: patent EP0651751B1, “FAMILY OF PORPHIN RING SUBSTANCES, METHOD OF OBTAINING THEM FROM CYANOPHYCEAE, AND APPLICATIONS AS COSMETICS AND AS THERAPEUTIC PRODUCTS” (GENERALE DE PREVENTION ET DE LOISIRS, priority 1992, dated 1994)
